Test results from article PMC4335020, “Single Oral Dose Pharmacokinetics of Decursin and Decursinol Angelate in Healthy Adult Men and Women” (PLoS ONE, 2015).
Where two headings read alike, the source gives them in different places.

Test: Single oral dose human plasma pharmacokinetics of D, DA and DOH after Cogni.Q
Assay type: in vivo
Conditions: for AUC(0-t) / Cmax / half-life / Tmax: human, plasma
From the text: Ten healthy male and 10 female subjects were recruited by public announcement in Amarillo, TX, from January 2013 to April 2013 (see Fig. 1 CONSORT diagram). The sample size for each gender was chosen without power calculation due to the lack of prior knowledge of PK parameter variance in humans. After receiving informed consent verbally and in writing, the health status of each candidate was confirmed by health questionnaire, plasma biochemistry (hepatic and renal functions), complete blood cell count (CBC), and a physical examination by a participating academic physician. Subjects with diabetes, or pregnant, perinatal and breastfeeding women were excluded. For the 48 hours preceding study visit until the final blood draw, all subjects were instructed to avoid taking any prescription or nonprescription drugs, vitamins, and herbal/dietary supplements. Each subject was compensated for participating in the study per TTUHSC IRB approved rate.
Eligible subjects arrived at our clinical facility at 0700 (7:00 am) on the test day after a fast beginning at 2200 (10:00 pm) the previous night. After a brief review of vital signs, the nurse placed an intravenous (IV) line with saline drip in one arm of each subject. A baseline pre-dose (hour 0) blood sample was drawn through the IV line; after that subjects swallowed four Cogni.Q vegicaps with 240 mL of water at hour 0 under direct supervision. Subjects stayed at the clinical facility in their room for the next 12 hours, returning at 24 and 48 hours. Blood was drawn at baseline (hour 0) and at 0.5, 1, 2, 3, 4, 6, 8, 12, 24 and 48 hours after dosing into Vacutainer Blood Collection Tube (Becton-Dickinson, Franklin Lakes, NJ. Product Number: 367874, Sodium heparin was used as anti-coagulant). Water was allowed as desired except for within the first hour after Cogni.Q consumption. All subjects received standardized meals at post-dose hours 4.5 and 9.5 but no food was allowed for at least the first 4 hours post-dose.
Plasma was prepared by centrifuging the heparinized blood at 1000 g for 15 minutes at room temperature. Urine samples (40mL) were collected within time spans of 0–4, 4–8, 8–12 and 12–24 hours (total volume of urine was recorded). All plasma and urine samples were put on dry ice immediately and then stored at -80°C freezer until analysis.
Plasma samples were extracted with a validated solid supported liquid extraction (SLE) method facilitated with a positive pressure manifold (Biotage, Charlotte, NC). Briefly, 100 μL of plasma sample was spiked with 5 μL of 10 ng/μL prednisolone (IS), diluted with 200 μL of LC-MS grade water, mixed and loaded onto ISOLUTE SLE+ 400 μL Array Well cartridges (Biotage, Charlotte, NC). A pulse of minimum positive pressure was applied to facilitate the samples absorption into the cartridges. After the samples were allowed to absorb for 5 min, the compounds were eluted with 2×500 μL tert-butyl methyl ether. The eluent was dried in a Speedvac and the resulting residue was reconstituted in 50 μL of methanol for UHPLC-MS/MS analysis.
Eight-point calibration curves were constructed for D, DA and DOH, at concentrations of 0.1, 0.5, 1, 5, 10, 20, 50 and 100 μg/L for D and DA, and at concentrations of 1, 5, 10, 50, 100, 200, 500 and 1000 μg/L for DOH, respectively. The linear range was 0.1–100 μg/L (0.3–300 nmol/L), 0.1–100 μg/L (0.3–300 nmol/L) and 1–1000 μg/L (4–4000 nmol/L) for D, DA and DOH, respectively. The inter- and intra-assay CV were lower than 6.5% and the accuracy was between 90–105%. Calibration curve was run for each batch of samples analyzed. The mean calibration curve correlation coefficient (r) for D, DA and DOH was 0.999, 0.999 and 0.998, respectively (data from 7–10 calibration curves). In addition, 70% of the plasma samples were extracted and analyzed twice, the data from two replicate analyses were nearly identical and combined for final data analyses and presentation. […]

CC(C)=CC(=O)O[C@H]1Cc2cc3ccc(=O)oc3cc2OC1(C)C [D, decursin]
AUC(0-t) (oral, 4 Cogni.Q vegicaps, subject S10 (185 lb), read-out: AUC0-48h): 46.6 nmol·h/L
Cmax (oral, 4 Cogni.Q vegicaps, subject S10 (185 lb), read-out: Cmax): 5.7 nM
half-life (oral, 4 Cogni.Q vegicaps, subject S10 (185 lb), read-out: Terminal t1/2, h (converted)): 13.4 h
Tmax (oral, 4 Cogni.Q vegicaps, subject S10 (185 lb), read-out: Tmax): 0.5 h
AUC(0-t) (oral, 4 Cogni.Q vegicaps, subject S11 (178 lb), read-out: AUC0-48h): 14.7 nmol·h/L
Cmax (oral, 4 Cogni.Q vegicaps, subject S11 (178 lb), read-out: Cmax): 2.5 nM
half-life (oral, 4 Cogni.Q vegicaps, subject S11 (178 lb), read-out: Terminal t1/2, h (converted)): 20.2 h
Tmax (oral, 4 Cogni.Q vegicaps, subject S11 (178 lb), read-out: Tmax): 1 h
AUC(0-t) (oral, 4 Cogni.Q vegicaps, subject S12 (169 lb), read-out: AUC0-48h): 24.8 nmol·h/L
Cmax (oral, 4 Cogni.Q vegicaps, subject S12 (169 lb), read-out: Cmax): 1.3 nM
half-life (oral, 4 Cogni.Q vegicaps, subject S12 (169 lb), read-out: Terminal t1/2, h (converted)): 15.7 h
Tmax (oral, 4 Cogni.Q vegicaps, subject S12 (169 lb), read-out: Tmax): 2 h
AUC(0-t) (oral, 4 Cogni.Q vegicaps, subject S13 (192 lb), read-out: AUC0-48h): 13.5 nmol·h/L
Cmax (oral, 4 Cogni.Q vegicaps, subject S13 (192 lb), read-out: Cmax): 1.3 nM
half-life (oral, 4 Cogni.Q vegicaps, subject S13 (192 lb), read-out: Terminal t1/2, h (converted)): 25.8 h
Tmax (oral, 4 Cogni.Q vegicaps, subject S13 (192 lb), read-out: Tmax): 0.5 h
AUC(0-t) (oral, 4 Cogni.Q vegicaps, subject S14 (200 lb), read-out: AUC0-48h): 21.5 nmol·h/L
Cmax (oral, 4 Cogni.Q vegicaps, subject S14 (200 lb), read-out: Cmax): 8.6 nM
half-life (oral, 4 Cogni.Q vegicaps, subject S14 (200 lb), read-out: Terminal t1/2, h (converted)): 4.5 h
Tmax (oral, 4 Cogni.Q vegicaps, subject S14 (200 lb), read-out: Tmax): 1 h
AUC(0-t) (oral, 4 Cogni.Q vegicaps, subject S15 (177 lb), read-out: AUC0-48h): 23.8 nmol·h/L
Cmax (oral, 4 Cogni.Q vegicaps, subject S15 (177 lb), read-out: Cmax): 16.8 nM
half-life (oral, 4 Cogni.Q vegicaps, subject S15 (177 lb), read-out: Terminal t1/2, h (converted)): 26.5 h
Tmax (oral, 4 Cogni.Q vegicaps, subject S15 (177 lb), read-out: Tmax): 1 h
Tmax (oral, 4 Cogni.Q vegicaps, subject S16 (175 lb), read-out: Tmax): 3 h
AUC(0-t) (oral, 4 Cogni.Q vegicaps, subject S17 (147 lb), read-out: AUC0-48h): 53.9 nmol·h/L
Cmax (oral, 4 Cogni.Q vegicaps, subject S17 (147 lb), read-out: Cmax): 9.8 nM
half-life (oral, 4 Cogni.Q vegicaps, subject S17 (147 lb), read-out: Terminal t1/2, h (converted)): 22.7 h
Tmax (oral, 4 Cogni.Q vegicaps, subject S17 (147 lb), read-out: Tmax): 2 h
half-life (oral, 4 Cogni.Q vegicaps, subject S18 (180 lb), outlier, excluded from means, read-out: Terminal t1/2, h (converted)): 138 h
AUC(0-t) (oral, 4 Cogni.Q vegicaps, subject S18 (180 lb), read-out: AUC0-48h): 25.8 nmol·h/L
Cmax (oral, 4 Cogni.Q vegicaps, subject S18 (180 lb), read-out: Cmax): 1.7 nM
Tmax (oral, 4 Cogni.Q vegicaps, subject S18 (180 lb), read-out: Tmax): 4 h
AUC(0-t) (oral, 4 Cogni.Q vegicaps, subject S19 (130 lb), read-out: AUC0-48h): 35.7 nmol·h/L
Cmax (oral, 4 Cogni.Q vegicaps, subject S19 (130 lb), read-out: Cmax): 1.7 nM
half-life (oral, 4 Cogni.Q vegicaps, subject S19 (130 lb), read-out: Terminal t1/2, h (converted)): 8.5 h
Tmax (oral, 4 Cogni.Q vegicaps, subject S19 (130 lb), read-out: Tmax): 3 h
half-life (oral, subject S16 (175 lb), outlier, excluded from means, read-out: Terminal t1/2, h (converted)): 9.4 h
AUC(0-t) (oral, subject S16 (175 lb), read-out: AUC0-48h): 22.2 nmol·h/L
Cmax (oral, subject S16 (175 lb), read-out: Cmax): 2.8 nM
AUC(0-t) (oral, subject S20 (200 lb), read-out: AUC0-48h): 19.1 nmol·h/L
Cmax (oral, subject S20 (200 lb), read-out: Cmax): 1.3 nM
half-life (oral, subject S20 (200 lb), read-out: Terminal t1/2, h (converted)): 18.4 h
Tmax (oral, subject S20 (200 lb), read-out: Tmax): 2 h
conversion of D/DA to DOH (humans, from plasma AUC0–48h values): > 98%
AUC(0-t) (male, oral, 4 Cogni.Q vegicaps, Men n=10 (S1 Table), read-out: AUC0-48h, Mean): 28.5 nmol·h/L
Cmax (male, oral, 4 Cogni.Q vegicaps, Men n=10 (S1 Table), read-out: Cmax, nM, Mean): 5.22 nM
Tmax (male, oral, 4 Cogni.Q vegicaps, Men n=10 (S1 Table), read-out: Tmax, h, Mean): 1.7 h
half-life (male, oral, Men, outliers excluded (S1 Table), read-out: Terminal t1/2, h, Mean (converted)): 17.7 h
AUC(0-t) (male, po, Men N = 10, single oral dose Cogni.Q, read-out: AUC0–48h, h.nmol/L Mean (SD)): 28.5 nmol·h/L
Cmax (male, po, Men N = 10, single oral dose Cogni.Q, read-out: Cmax, nmol/L, Mean (SD)): 5.2 nM
Tmax (male, po, Men N = 10, single oral dose Cogni.Q, read-out: Tmax, h, Mean (SD)): 1.7 h
half-life (male, po, Men, outlier subjects excluded, single oral dose Cogni.Q, read-out: T1/2, h, terminal Mean (SD) (converted)): 17.7 h
